{"source": "patent US5872126A", "about": "“Methods and compositions for treating preterm labor” (priority 1997, dated 1999)", "test_system": "parturition in the rat", "test": "Parturition after termination of drug treatment on GD 17, 19 or 20 (Example 2)", "type": "in vivo, Sprague-Dawley rat", "settings": "20 mg/kg/day; for Mean Length of Gestation ± SD: in days (unit assumed)", "source_text": "In order to determine if termination of drug treatment with the 5α-reductase type 1 inhibitor 3-oxo-4-aza-4,7β-dimethyl-16β-(4-chlorophenoxy)-5α-androstane (\"test compound\") on GD 17, 19 or 20 would allow the 3-oxo-4-aza-4,7β-dimethyl-16β-(4-chlorophenoxy)-5α-androstane-treated pregnant females to initiate and complete parturition, Sprague-Dawley rats (Charles River Laboratories, Raleigh, N.C.) were approximately ten weeks of age and weighted 223 to 276 grams on Gestation Day 0 (GD 0, the day of finding copulatory plugs). The design of the study is as described below. All animals were housed and fed as described in Example 1, with the exception of a 1 hour transient electrical failure, during which power outage dim illumination was provided by emergency backup lighting.\nA dose of 20 mg/kg/day of the test compound was given once daily by oral gavage to the three treatment groups of 10 mated females each, designated by the treatment interval (GD 6-17, GD 6-19, and GD 6-20), at a dose volume of 5 mL/kg. (GD 6-17 received treatment from Gestational Day 6 through 17, etc.) An additional group of 10 females similarly received the vehicle (0.5% methylcellulose in deionized water with 0.02% sodium lauryl sulfate (SLS)) on GD 6-20 and served as the control.", "data": [{"smiles": "C[C@H]1C[C@H]2N(C)C(=O)CC[C@]2(C)[C@H]2CC[C@]3(C)C[C@@H](Oc4ccc(Cl)cc4)C[C@H]3[C@H]12", "note": "[test compound, 3-oxo-4-aza-4,7β-dimethyl-16β-(4-chlorophenoxy)-5α-androstane]", "values": [{"measurement": "length of gestation relative to controls", "setting": "all dosing intervals", "result": "increases in the length of gestation"}, {"measurement": "number of pregnant females completing parturition", "setting": "dosed GD 6-17, delivery day GD 22.0", "result": 3}, {"measurement": "number of pregnant females completing parturition", "setting": "dosed GD 6-17, delivery day GD 22.5", "result": 1}, {"measurement": "number of pregnant females completing parturition", "setting": "dosed GD 6-17, delivery day GD 23.0", "result": 6}, {"measurement": "Mean Length of Gestation ± SD", "setting": "dosed GD 6-17", "result": "22.6 ± 0.5"}, {"measurement": "Sacrificed GD 24 due to failure to initiate or complete parturition", "setting": "dosed GD 6-19", "result": 1}, {"measurement": "pregnant females that failed to initiate or complete delivery (fraction)", "setting": "dosed GD 6-19", "result": "1/10"}, {"measurement": "number of pregnant females completing parturition", "setting": "dosed GD 6-19, delivery day GD 22.0", "result": 1}, {"measurement": "number of pregnant females completing parturition", "setting": "dosed GD 6-19, delivery day GD 22.5", "result": 3}, {"measurement": "number of pregnant females completing parturition", "setting": "dosed GD 6-19, delivery day GD 23.0", "result": 4}, {"measurement": "number of pregnant females completing parturition", "setting": "dosed GD 6-19, delivery day GD 23.5", "result": 1}, {"measurement": "Mean Length of Gestation ± SD", "setting": "dosed GD 6-19", "result": "22.8 ± 0.4"}, {"measurement": "Sacrificed GD 24 due to failure to initiate or complete parturition", "setting": "dosed GD 6-20", "result": 2}, {"measurement": "pregnant females that failed to initiate or complete delivery (fraction)", "setting": "dosed GD 6-20", "result": "2/9"}, {"measurement": "number of pregnant females completing parturition", "setting": "dosed GD 6-20, delivery day GD 23.0", "result": 5}, {"measurement": "number of pregnant females completing parturition", "setting": "dosed GD 6-20, delivery day GD 24", "result": 2}, {"measurement": "Mean Length of Gestation ± SD", "setting": "dosed GD 6-20", "result": "23.3 ± 0.5"}]}]}
